Assay results as given in ChEMBL document CHEMBL1909046, “DrugMatrix in vitro pharmacology data”.
pIC50: −log10 of the molar value.

How the values were obtained:
Carbonic anhydrase 2 = Carbonic anhydrase 2 (Homo sapiens, UniProt P00918); assay: DRUGMATRIX: Carbonic Anhydrase II enzyme inhibition (substrate: 4-Nitrophenyl acetate (4-NPA)); assay type: tissue-based, Erythrocyte; conditions: Not Active = under 50% inhibition at 10 µM; for IC50: erythrocyte
[1] = DRUGMATRIX: GABAA, Flunitrazepam, Central radioligand binding (ligand: [3H] Flunitrazepam); assay type: cell membranes, Rattus norvegicus, Wistar, Brain, Membrane; conditions: Not Active = under 50% inhibition at 10 µM
[2] = molecular target: C-C chemokine receptor type 5 (Homo sapiens, UniProt P51681); assay type: cell membranes, Membrane; conditions: hek293; also: in other assays of this panel Not Active means under 50% inhibition at 10 µM
Chain of C-C chemokine receptor type 5 (P51681 whole entry): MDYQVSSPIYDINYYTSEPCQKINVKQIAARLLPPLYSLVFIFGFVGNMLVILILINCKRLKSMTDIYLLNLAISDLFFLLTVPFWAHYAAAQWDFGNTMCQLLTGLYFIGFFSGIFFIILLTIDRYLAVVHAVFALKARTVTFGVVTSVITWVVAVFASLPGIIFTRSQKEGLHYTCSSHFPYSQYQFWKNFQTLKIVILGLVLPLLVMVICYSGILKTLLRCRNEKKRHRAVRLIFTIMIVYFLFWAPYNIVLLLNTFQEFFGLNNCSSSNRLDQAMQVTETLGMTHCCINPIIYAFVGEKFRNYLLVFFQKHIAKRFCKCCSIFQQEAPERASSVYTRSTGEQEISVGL

[3] = molecular target: T1, Type-2 angiotensin II receptor (Homo sapiens, UniProt P50052); assay: biochemical; assay type: cell-based, CHO-K1; conditions: cho-k1; also: in other assays of this panel Not Active means under 50% inhibition at 10 µM
T1 sequence (P50052 whole entry): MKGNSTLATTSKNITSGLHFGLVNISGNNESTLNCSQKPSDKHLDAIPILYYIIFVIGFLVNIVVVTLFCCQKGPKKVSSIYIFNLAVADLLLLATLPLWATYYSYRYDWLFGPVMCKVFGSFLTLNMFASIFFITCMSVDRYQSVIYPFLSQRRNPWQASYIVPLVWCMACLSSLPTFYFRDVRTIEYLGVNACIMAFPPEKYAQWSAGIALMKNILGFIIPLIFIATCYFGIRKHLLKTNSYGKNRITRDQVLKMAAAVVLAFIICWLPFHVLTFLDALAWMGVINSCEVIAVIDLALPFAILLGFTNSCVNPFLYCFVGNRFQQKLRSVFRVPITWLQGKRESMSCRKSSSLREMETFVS

[4] = molecular target: Tyrosine-protein kinase Lck (Homo sapiens, UniProt P06239); assay: DRUGMATRIX: Protein Tyrosine Kinase, LCK enzyme inhibition (substrate: Poly(Glu:Tyr)); assay type: cell-based, Insect cells; conditions: Not Active = under 50% inhibition at 10 µM; for IC50: insect cells
Chain of Tyrosine-protein kinase Lck (P06239 whole entry): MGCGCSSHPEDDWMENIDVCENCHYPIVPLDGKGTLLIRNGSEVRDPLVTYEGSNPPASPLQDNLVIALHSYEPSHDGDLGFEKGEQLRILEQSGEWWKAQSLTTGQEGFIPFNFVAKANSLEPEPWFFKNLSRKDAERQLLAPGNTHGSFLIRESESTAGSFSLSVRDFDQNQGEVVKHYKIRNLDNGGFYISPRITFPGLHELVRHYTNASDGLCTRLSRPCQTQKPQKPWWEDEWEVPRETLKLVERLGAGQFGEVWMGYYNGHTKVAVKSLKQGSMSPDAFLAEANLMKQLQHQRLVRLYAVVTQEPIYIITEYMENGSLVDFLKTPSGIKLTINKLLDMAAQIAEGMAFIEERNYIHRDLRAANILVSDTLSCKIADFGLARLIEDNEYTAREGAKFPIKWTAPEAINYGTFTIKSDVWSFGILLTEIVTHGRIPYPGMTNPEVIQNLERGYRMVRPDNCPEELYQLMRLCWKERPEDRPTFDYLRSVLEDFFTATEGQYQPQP

[5] = molecular target: T2, Neuropeptide Y receptor type 2 (Homo sapiens, UniProt P49146); assay type: cell membranes, Membrane; conditions: kan-ts; also: in other assays of this panel Not Active means under 50% inhibition at 10 µM
T2 sequence (P49146 whole entry): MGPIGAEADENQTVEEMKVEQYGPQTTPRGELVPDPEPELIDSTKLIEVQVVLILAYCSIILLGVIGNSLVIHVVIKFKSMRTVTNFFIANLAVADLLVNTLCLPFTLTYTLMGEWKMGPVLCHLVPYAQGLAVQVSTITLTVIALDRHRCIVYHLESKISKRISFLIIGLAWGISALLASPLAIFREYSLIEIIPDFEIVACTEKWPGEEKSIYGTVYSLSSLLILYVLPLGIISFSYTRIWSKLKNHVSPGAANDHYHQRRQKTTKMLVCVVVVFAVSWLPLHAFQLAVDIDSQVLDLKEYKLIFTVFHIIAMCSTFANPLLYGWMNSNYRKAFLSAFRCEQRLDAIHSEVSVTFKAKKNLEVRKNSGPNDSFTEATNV

[6] = molecular target: T3, Neuropeptide Y receptor type 1 (Homo sapiens, UniProt P25929); assay type: cell membranes, Membrane; conditions: sk-n-mc; also: in other assays of this panel Not Active means under 50% inhibition at 10 µM
T3 sequence (P25929 whole entry): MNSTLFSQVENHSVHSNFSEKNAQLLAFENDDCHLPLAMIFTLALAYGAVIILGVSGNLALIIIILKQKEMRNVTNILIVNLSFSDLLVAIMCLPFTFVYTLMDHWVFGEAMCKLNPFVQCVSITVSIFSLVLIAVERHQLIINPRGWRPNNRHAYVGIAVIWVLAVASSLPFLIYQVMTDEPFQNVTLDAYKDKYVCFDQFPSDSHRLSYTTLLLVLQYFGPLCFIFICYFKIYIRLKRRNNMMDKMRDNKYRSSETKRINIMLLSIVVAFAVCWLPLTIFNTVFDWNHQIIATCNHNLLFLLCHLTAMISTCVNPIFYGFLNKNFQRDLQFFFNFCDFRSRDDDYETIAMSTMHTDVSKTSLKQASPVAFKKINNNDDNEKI

[7] = molecular target: T4, C-X-C chemokine receptor type 1 (Homo sapiens, UniProt P25024); also: in other assays of this panel Not Active means under 50% inhibition at 10 µM
T4 sequence (P25024 whole entry): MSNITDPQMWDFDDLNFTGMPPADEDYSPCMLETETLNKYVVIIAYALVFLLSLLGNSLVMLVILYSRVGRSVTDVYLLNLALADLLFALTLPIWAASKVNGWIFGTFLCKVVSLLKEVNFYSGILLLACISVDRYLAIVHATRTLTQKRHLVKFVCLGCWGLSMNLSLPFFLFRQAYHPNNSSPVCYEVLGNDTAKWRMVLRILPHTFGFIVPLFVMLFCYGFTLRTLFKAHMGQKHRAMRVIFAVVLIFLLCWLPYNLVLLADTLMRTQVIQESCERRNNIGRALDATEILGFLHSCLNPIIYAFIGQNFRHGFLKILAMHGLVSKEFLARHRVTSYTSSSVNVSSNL

Compound | IC50 (Carbonic anhydrase 2) | IC50 [1] | Ki [1] | IC50 [2] | IC50 [3] | IC50 [4] | IC50 [5] | IC50 [6] | IC50 [7] | pIC50 (Carbonic anhydrase 2; read-out: IC50) | Ki [7] | pIC50 ([4]; read-out: IC50)
CCCNC(C)C(=O)Nc1ccccc1C (stereo not drawn) [PRILOCAINE] | Not Active | Not Active | Not Active | Not Active | Not Active | Not Active | Not Active | Not Active | Not Active | – | – | –
NS(=O)(=O)c1cc(C2(O)NC(=O)c3ccccc32)ccc1Cl (stereo not drawn) [CHLORTHALIDONE] | – | Not Active | Not Active | Not Active | Not Active | Not Active | Not Active | Not Active | Not Active | 6.17 | – | –
CCN(CC)CCCC(C)Nc1c2ccc(Cl)cc2nc2ccc(OC)cc12 (stereo not drawn) [QUINACRINE] | Not Active | Not Active | Not Active | Not Active | Not Active | Not Active | Not Active | Not Active | Not Active | – | – | –
CN1CCC(=C2c3ccccc3CC(=O)c3sccc32)CC1 [KETOTIFEN] | Not Active | Not Active | Not Active | Not Active | Not Active | Not Active | Not Active | Not Active | – | – | Not Active | –
Cc1c(O)cccc1C(=O)N[C@@H](CSc1ccccc1)[C@H](O)CN1C[C@H]2CCCC[C@H]2C[C@H]1C(=O)NC(C)(C)C | Not Active | Not Active | Not Active | Not Active | Not Active | – | Not Active | Not Active | Not Active | – | – | 4.10
Cn1c(=O)c2c(ncn2C)n(C)c1=O [CAFFEINE] | Not Active | Not Active | Not Active | Not Active | Not Active | Not Active | Not Active | Not Active | Not Active | – | – | –
CC(C)NCC(O)c1ccccc1Cl (stereo not drawn) [CLORPRENALINE] | Not Active | Not Active | Not Active | Not Active | Not Active | Not Active | Not Active | Not Active | Not Active | – | – | –
NC(=O)c1cccnc1 [NIACINAMIDE] | Not Active | Not Active | Not Active | Not Active | Not Active | Not Active | Not Active | Not Active | Not Active | – | – | –
C[C@]12C=CC(=O)C=C1CC[C@H]1[C@@H]3C[C@@H](O)[C@](O)(C(=O)CO)[C@@]3(C)C[C@H](O)[C@@]12F [TRIAMCINOLONE] | Not Active | Not Active | Not Active | Not Active | Not Active | Not Active | Not Active | Not Active | Not Active | – | – | –
CC(=O)OCC(=O)[C@@]1(O)CC[C@H]2[C@@H]3CCC4=CC(=O)CC[C@]4(C)[C@@]3(F)[C@@H](O)C[C@@]21C [FLUDROCORTISONE ACETATE] | Not Active | Not Active | Not Active | Not Active | Not Active | Not Active | Not Active | Not Active | Not Active | – | – | –
CN(C)C(=O)Oc1cccc([N+](C)(C)C)c1.[Br-] [NEOSTIGMINE BROMIDE] | Not Active | Not Active | Not Active | Not Active | Not Active | Not Active | Not Active | Not Active | Not Active | – | – | –
C[C@]12CC[C@@H]3c4ccc(O)cc4CC[C@H]3[C@@H]1C[C@@H](O)[C@@H]2O [ESTRIOL] | Not Active | Not Active | Not Active | Not Active | Not Active | Not Active | Not Active | Not Active | Not Active | – | – | –
CCN(CC)CCNC(=O)c1ccc(N)cc1 [PROCAINAMIDE] | Not Active | Not Active | Not Active | Not Active | Not Active | Not Active | Not Active | Not Active | Not Active | – | – | –
O=C(O)P(=O)(O)O [FOSCARNET] | Not Active | Not Active | Not Active | Not Active | Not Active | Not Active | Not Active | Not Active | Not Active | – | – | –
C[C@H]1[C@H](NC(=O)/C(=N\OC(C)(C)C(=O)O)c2csc(N)n2)C(=O)N1S(=O)(=O)O [AZTREONAM] | Not Active | Not Active | Not Active | Not Active | Not Active | Not Active | Not Active | Not Active | Not Active | – | – | –
CN1C[C@@H]2C[C@H]1CN2c1cc2c(cc1F)c(=O)c(C(=O)O)cn2C1CC1 [DANOFLOXACIN] | Not Active | Not Active | Not Active | Not Active | Not Active | Not Active | Not Active | Not Active | Not Active | – | – | –
CC(=O)OCC(=O)[C@@]12OC(C)(C)O[C@@H]1C[C@H]1[C@@H]3C[C@H](F)C4=CC(=O)C=C[C@]4(C)[C@@]3(F)[C@@H](O)C[C@@]12C [FLUOCINONIDE] | Not Active | Not Active | Not Active | Not Active | Not Active | Not Active | Not Active | Not Active | Not Active | – | – | –
CN1CCCC(CN2c3ccccc3Sc3ccccc32)C1 (stereo not drawn) [MEPAZINE] | Not Active | Not Active | Not Active | Not Active | Not Active | Not Active | Not Active | Not Active | Not Active | – | – | –
NCCCNCCSP(=O)(O)O [AMIFOSTINE] | Not Active | Not Active | Not Active | Not Active | Not Active | Not Active | Not Active | Not Active | Not Active | – | – | –
CC[C@]1(O)C[C@@H]2CN(CCc3c([nH]c4ccccc34)[C@@](C(=O)OC)(c3cc4c(cc3OC)N(C)[C@H]3[C@@](O)(C(N)=O)[C@H](O)[C@]5(CC)C=CCN6CC[C@]43[C@@H]65)C2)C1 [VINDESINE] | Not Active | Not Active | Not Active | Not Active | Not Active | Not Active | Not Active | Not Active | Not Active | – | – | –
CCn1cc(C(=O)O)c(=O)c2cc(F)c(N3CCNC(C)C3)c(F)c21 (stereo not drawn) [LOMEFLOXACIN] | Not Active | Not Active | Not Active | Not Active | Not Active | Not Active | Not Active | Not Active | Not Active | – | – | –
CN1CCN(c2c(F)cc3c(=O)c(C(=O)O)cn(CCF)c3c2F)CC1 [FLEROXACIN] | Not Active | Not Active | Not Active | Not Active | Not Active | Not Active | Not Active | Not Active | Not Active | – | – | –
